Laboratory results from PubChem BioAssay (NCI).
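Compound exposure: 48 hours, 5 concentrations, 96-well plates. GI50 is the concentration that inhibits growth by half. TGI: total growth inhibition.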

Legend:
Experiment in all cases: growth of human tumour cells (NCI), 48 h
M14 melanoma = tested on: M14 melanoma
ACHN renal = tested on: ACHN renal
A549 NSCLC = tested on: A549 NSCLC
SF-268 CNS = tested on: SF-268 CNS
SN12C renal = tested on: SN12C renal
IGROV1 ovarian = tested on: IGROV1 ovarian
SK-MEL-5 melanoma = tested on: SK-MEL-5 melanoma
U251 CNS = tested on: U251 CNS
TK-10 renal = tested on: TK-10 renal
RXF 393 renal = tested on: RXF 393 renal

| Compound | TGI (M14 melanoma) [µM] | TGI (ACHN renal) [µM] | TGI (A549 NSCLC) [µM] | TGI (SF-268 CNS) [µM] | TGI (SN12C renal) [µM] | TGI (IGROV1 ovarian) [µM] | TGI (SK-MEL-5 melanoma) [µM] | TGI (U251 CNS) [µM] | TGI (TK-10 renal) [µM] | GI50 (M14 melanoma) [µM] | GI50 (ACHN renal) [µM] | GI50 (A549 NSCLC) [µM] | GI50 (SF-268 CNS) [µM] | GI50 (SN12C renal) [µM] | GI50 (IGROV1 ovarian) [µM] | GI50 (SK-MEL-5 melanoma) [µM] | GI50 (U251 CNS) [µM] | GI50 (TK-10 renal) [µM] | TGI (RXF 393 renal) [µM] | GI50 (RXF 393 renal) [µM] |
| --- | --- | --- | --- | --- | --- | --- | --- | --- | --- | --- | --- | --- | --- | --- | --- | --- | --- | --- | --- | --- |
| Cc1ccccc1CN1CC=c2ccccc2=N1 | > 100 | > 100 | > 100 | > 100 | > 100 | > 100 | > 100 | > 100 | > 100 |  |  |  |  |  |  |  |  |  |  |  |
| COc1cc(-n2cc(-c3ccc(Cl)cc3)[nH]c2=O)cc(OC)c1OC | > 100 | 46 | > 100 | 88.6 | > 100 | > 100 | > 100 | 45.1 | 42.8 | 94.1 | 21.6 | 34.6 | 30.4 | 37.7 | 35.5 | 31.1 | 20.9 | 18.5 |  |  |
| Cc1cc(Cl)ccc1N=C1NC(=O)C(CC(=O)Nc2ccc(Cl)cc2Cl)S1 (stereo unspecified) | > 100 | > 100 | > 100 | > 100 | > 100 | > 100 | > 100 | > 100 | > 100 |  |  |  |  |  |  |  |  |  |  |  |
| O=C(Nc1c(O)[nH]c(=S)[nH]c1=O)c1ccc2ccccc2n1 | > 100 | > 100 | > 100 | > 100 | > 100 | > 100 | > 100 | > 100 | > 100 |  |  |  |  |  |  |  |  |  |  |  |
| C1=Cc2nc1c(-c1ccncc1)c1ccc([n-]1)c(-c1ccncc1)c1nc(c(-c3ccncc3)c3ccc([n-]3)c2-c2ccncc2)C=C1.[Zn+2] | > 100 | > 100 | > 100 | > 100 | > 100 | > 100 | > 100 | > 100 | > 100 |  |  |  |  |  |  |  |  |  |  |  |
| O=[N+]([O-])c1nccn1COCCF | > 100 | > 100 | > 100 | > 100 | > 100 | > 100 | > 100 | > 100 | > 100 |  |  |  |  |  |  |  |  |  |  |  |
| O=C(/C=C\c1ccc(Cl)cc1Cl)c1cccs1 | 35.1 | 27.9 | > 100 | 53.3 | 32.1 |  | 29.9 |  | 78.9 |  |  |  |  |  |  |  |  |  | 44.3 |  |
| Nc1ccc(/C=N/Nc2ccnc3c(N)cccc23)c2cccnc12 | 3.49 |  | 3.24 |  |  |  | 3.19 | 3.09 | 3.56 | 1.87 |  | 1.68 |  |  |  | 1.78 | 1.61 | 1.96 |  |  |
| CCOC(=O)/C(=C/c1ccc(C#N)cc1)N(CC)CC | > 100 | > 100 | > 100 | > 100 | > 100 | > 100 | > 100 | > 100 | > 100 |  |  |  |  |  |  |  |  |  |  |  |
| Cc1nc(NC(=O)CCCN2C(=O)c3cccc4cccc(c34)C2=O)sc1C(=O)Nc1cc(C(=O)NCCCN(C)C)n(C)c1 | > 100 | > 100 | > 100 | > 100 | > 100 | > 100 | > 100 | > 100 | > 100 | > 100 | > 100 | > 100 | > 100 | > 100 | > 100 | > 100 | > 100 | > 100 |  |  |
| CC(=O)N=c1ccc2nc3c(cc(N)c4ccccc43)oc-2c1 | 3.86 | 2.62 | 3.42 | 3.43 | 2.9 | 1.89 | 1.35 | 2.86 | 6.34 | 1.58 | 1.34 | 1.08 | 1.66 | 1.39 | 0.36 | 0.33 | 1.43 | 2.64 |  |  |
| O=C1C(=O)C(Br)(Br)C(Br)=C1Br | 32.4 | 29.6 | > 100 |  | 51.8 | > 100 | 29.4 | 79.8 | 39.9 |  |  |  |  |  |  |  |  |  |  |  |
| CC1=C(C(=O)Nc2ccc(Cl)c(Cl)c2)C(c2ccco2)C(C(=O)Nc2ccc(Cl)c(Cl)c2)=C(C)N1 | 18.4 | 18.2 | 28.1 | 23.9 | 23.9 | 32.6 | 26.9 | 23.9 | 18.9 |  |  |  |  |  |  |  |  |  |  |  |
| COc1cc2nc(Nc3cccc(F)c3)nc(Nc3cc(C)[nH]n3)c2cc1OC | 3.22 | 3.17 |  | 3.46 | 3.79 |  | 2.84 | 3.73 | 3.68 | 1.64 | 1.78 |  | 1.82 | 1.89 |  | 1.44 | 1.82 | 1.82 | 3.22 | 1.81 |
| N#CCCN(c1ccc(-c2nnc(NC(=O)CNNC(=O)CC(=O)Nc3ccccc3)s2)cc1)S(=O)(=O)c1ccccc1 |  | > 100 | > 100 | > 100 | > 100 | > 100 | > 100 | > 100 | > 100 |  |  |  |  |  |  |  |  |  |  |  |
| COC(=O)[C@]1(C)CCC[C@@]2(C)C1CCC1=CC3(C(C)C)CCC12OO3 (stereo partly specified) | > 100 | > 100 | > 100 | > 100 | > 100 | > 100 | > 100 | > 100 | > 100 |  |  |  |  |  |  |  |  |  |  |  |
